The values that follow come from US20140323476A1, “PEPTIDE DEFORMYLASE INHIBITORS” (priority 2011, published 2014).

The structures appear in SMILES notation. In brackets after ≈: the same amount, converted by molar mass.

A short description of data set [1]: Dissolution rate in water, turbidity and visual inspection. In kind it is physicochemical. The procedure: [(2R)-2-(cyclopentyl methyl)-3-(2-{5-fluoro-6-[(9aS)-hexahydropyrazino[2,1-c][1,4]oxazin-8(1h)-yl]-2-methyl-4-pyrimidinyl}hydrazino)-3-oxopropyl]hydroxyformamide was triturated with a mortar and pestle. The resulting powder (20 g, 1.0 eq, basis) was charged to a 250 mL jacketed vessel. The vessel was equipped with an overhead stirrer which was set to 60 RPM. The jacket fluid was controlled to 23° C. A solution of purified water (125 mL) and methanesulphonic acid (4.0 g, 2.7 mL, 1.0 eq) was prepared. The aqueous methanesulphonic acid solution was added to the vessel containing [(2R)-2-(cyclopentyl methyl)-3-(2-{5-fluoro-6-[(9aS)-hexahydropyrazino[2,1-c][1,4]oxazin-8(1h)-yl]-2-methyl-4-pyrimidinyl}hydrazino)-3-oxopropyl]hydroxyformamide. The resulting suspension was stirred continuously and monitored by turbidity and visual inspection. After 1 day, the turbidity and pH readings stabilized.
[(2R)-2-(cyclopentyl methyl)-3-(2-{5-fluoro-6-[(9aS)-hexahydropyrazino[2,1-c][1,4]oxazin-8(1h)-yl]-2-methyl-4-pyrimidinyl}hydrazino)-3-oxopropyl]hydroxyformamide methanesulphonate was triturated with a mortar and pestle. The resulting powder (24 g, 1.0 eq) was charged to a similar 250 mL jacketed vessel. The vessel was equipped with an overhead stirrer which was set to 60 RPM. The jacket fluid was controlled to 23° C. Purified water (125 mL) was added to the vessel containing [(2R)-2-(cyclopentylmethyl)-3-(2-{5-fluoro-6-[(9aS)-hexahydropyrazino[2,1-c][1,4]oxazin-8(1h)-yl]-2-methyl-4-pyrimidinyl}hydrazino)-3-oxopropyl]hydroxyformamide methanesulphonate. The resulting suspension was stirred continuously and monitored by turbidity and visual inspection. A clear solution was observed visually and confirmed turbidimetrically at 3 minutes.

A short description of a further data set: pH solubility curve. In kind it is physicochemical. As to conditions: thermodynamic from solid. From the text:
The pH solubility curve can be seen in Table 5 below.

The nature of data set [2]: Degradation rate on storage at forced conditions. In kind it is physicochemical. As to conditions: forced conditions: 50° C., ambient humidity.
Data set [3] in a line: Hydrolytic degradation rate of reconstituted lyophile. In kind it is physicochemical. As to conditions: reconstituted lyophile at 5 mg/mL.
Data set [4] in a line: Adsorption of labile water versus relative humidity. In kind it is physicochemical.
A further data set deals with Enterococcus faecalis 7. The data set can be described thus: Antimicrobial activity assay (MIC). As to conditions: median of all results obtained, panel run 6 times. It is filed as cell-based. The protocol:
(§1) Whole-cell antimicrobial activity was determined by broth microdilution using the Clinical and Laboratory Standards Institute (CLSI, formerly NCCLS) recommended methodology (NCCLS Document M7-A6, “Methods for Dilution Susceptibility Tests for Bacteria that Grow Aerobically—Approved Standard Sixth Edition”, 2003). Compounds were tested in serial two-fold dilutions ranging from 64 to 0.06 μg/mL. A panel of 12 strains was evaluated in the assay. This panel consisted of the following laboratory strains: Staphylococcus aureus Oxford, Staphylococcus aureus WCUH29, Enterococcus faecalis I, Enterococcus faecalis 7, Haemophilus influenzae Q1, Haemophilus influenzae NEMC1, Moraxella catarrhalis 1502, Streptococcus pneumoniae 1629, Streptococcus pneumoniae N1387, Streptococcus pneumoniae Ery2, Escherichia coli 7623 (AcrABEFD+) and Escherichia coli 120 (AcrAB−). The minimum inhibitory concentration (MIC) was determined as the lowest concentration of compound that inhibited visible growth. A mirror reader was used to assist in determining the MIC endpoint.

A further data set concerns Enterococcus faecalis I. The data set can be described thus: Antimicrobial activity assay (MIC). In kind it is cell-based. As to conditions: median of all results obtained, panel run 6 times. The protocol:
as §1

Data set [5] relates to Escherichia coli 120 (AcrAB−). The data set can be described thus: Antimicrobial activity assay (MIC). In kind it is cell-based. The procedure:
as §1

For data set [6], the system named is Escherichia coli 7623 (AcrABEFD+). The data set can be described thus: Antimicrobial activity assay (MIC). In kind it is cell-based. As to conditions: median of all results obtained, panel run 6 times. The procedure:
as §1

Data set [7] relates to Haemophilus influenzae NEMC1. Put plainly: Antimicrobial activity assay (MIC). As to conditions: median of all results obtained, panel run 6 times. In kind it is cell-based. The protocol:
as §1

The test system of data set [8] is Haemophilus influenzae Q1. Put plainly: Antimicrobial activity assay (MIC). As to conditions: median of all results obtained, panel run 6 times. In kind it is cell-based. The procedure: as §1
Data set [9] relates to Moraxella catarrhalis 1502. Put plainly: Antimicrobial activity assay (MIC). In kind it is cell-based. As to conditions: median of all results obtained, panel run 6 times. The protocol: as §1
In data set [10] the test system is Staphylococcus aureus Oxford. Put plainly: Antimicrobial activity assay (MIC). In kind it is cell-based. As to conditions: median of all results obtained, panel run 6 times. The procedure:
as §1

In data set [11] the test system is Staphylococcus aureus WCUH29. Put plainly: Antimicrobial activity assay (MIC). It is filed as cell-based. The settings on record: median of all results obtained, panel run 6 times. The protocol:
as §1

Data set [12] has as its system Streptococcus pneumoniae 1629. The data set can be described thus: Antimicrobial activity assay (MIC). In kind it is cell-based. The settings on record: median of all results obtained, panel run 6 times. The procedure:
as §1

Data set [13] relates to Streptococcus pneumoniae Ery2. The data set can be described thus: Antimicrobial activity assay (MIC). In kind it is cell-based. The settings on record: median of all results obtained, panel run 6 times. The procedure: as §1
The subject of data set [14] is Streptococcus pneumoniae N1387. Put plainly: Antimicrobial activity assay (MIC). In kind it is cell-based. The settings on record: median of all results obtained, panel run 6 times. The procedure: as §1
Another data set concerns panel of 12 strains. The data set can be described thus: Antimicrobial activity assay, broth microdilution, panel of 12 strains. It is filed as cell-based. As to conditions: compared with the examples from WO 03/101442. The procedure: as §1
On the technique in general: Broth dilution looks for growth in wells or tubes with falling amounts of substance.

With `Cc1nc(NNC(=O)[C@H](CC2CCCC2)CN(O)C=O)c(F)c(N2CCN3CCOC[C@@H]3C2)n1` [Example 1, [(2R)-2-(Cyclopentylmethyl)-3-(2-{5-fluoro-6-[(9aS)-hexahydropyrazino[2,1-c][1,4]oxazin-8(1H)-yl]-2-methyl-4-pyrimidinyl}hydrazino)-3-oxopropyl]hydroxyformamide], the “time observed without complete dissolution” value in data set [1] (20 g powder, 125 mL purified water with 1.0 eq methanesulphonic acid, 23° C., 60 RPM) is recorded as “over 7.1 days”. Further, the solubility (commonly the dissolved amount per volume that the medium holds) in the data set “pH solubility curve” (0.003M methanesulphonic acid, pH 4.86, aqueous buffer) turned out to be 1.93 mg/mL (≈ 4020 µM); in the data set “pH solubility curve” (0.01M methanesulphonic acid, pH 4.33, aqueous buffer) it was 4.98 mg/mL (≈ 10400 µM); in “pH solubility curve” (0.03M methanesulphonic acid, pH 3.98, aqueous buffer), 13.9 mg/mL (≈ 29000 µM); in the data set “pH solubility curve” (0.05M methanesulphonic acid, pH 3.76, aqueous buffer) it was 22 mg/mL (≈ 45900 µM); in the data set “pH solubility curve” (0.1M methanesulphonic acid, pH 3.57, aqueous buffer) it was 41.7 mg/mL (≈ 87000 µM); in the data set “pH solubility curve” (0.3M methanesulphonic acid, pH 3.34, aqueous buffer) it was 116 mg/mL (≈ 242000 µM). Besides, the solubility in “pH solubility curve” (0.5M methanesulphonic acid, pH 3.39, aqueous buffer) was determined as 193 mg/mL (≈ 402000 µM); in the data set “pH solubility curve” (1M methanesulphonic acid, pH 3.42, aqueous buffer), 347 mg/mL (≈ 724000 µM). The degradation rate in data set [2] (listed as free base) stood at 1.7 %/month. Moreover, the “Degradation Rate % hydrolized/day” value in [3] (storage temperature 5° C., listed as Free base) was 0.06 % hydrolized/day; in [3] (storage temperature 25° C., listed as Free base) it was 0.53 % hydrolized/day.
Consider `Cc1nc(NNC(=O)[C@H](CC2CCCC2)CN(O)C=O)c(F)c(N2CCN3CCOC[C@@H]3C2)n1` [Example 6], for which, in [4], the “relative humidity at which it deliquesces” value came to 70 % relative humidity. The “labile water adsorbed reversibly” value in [4] (up to 70% relative humidity) is reported as “up to 0.4 % (wt/wt)”. The “time to clear solution” value in [1] (24 g powder, 125 mL purified water, 23° C., 60 RPM) stood at 3 min. Also, the “dissolution and solubility compared to the free base” value in data set [1] (one equivalent of methanesulphonic acid and water, 160 mg/mL) is “faster dissolution and enhanced solubility”. In the data set “pH solubility curve” (Purified Water, pH 3.2, equilibrium not reached), this compound had a solubility greater than 452 mg/mL. Moreover, the degradation rate in [2] (listed as mesylate) is on record as 0.2 %/month. Moreover, the “Degradation Rate % hydrolized/day” value in data set [3] (storage temperature 5° C., listed as Mesylate) is given as 0.01 % hydrolized/day; in [3] (storage temperature 25° C., listed as Mesylate) it was 0.11 % hydrolized/day.
Take `CS(=O)(=O)O.Cc1nc(NNC(=O)[C@H](CC2CCCC2)CN(O)C=O)c(F)c(N2CCN3CCOC[C@@H]3C2)n1` [Example 11, [(2R)-2-(Cyclopentylmethyl)-3-(2-{5-fluoro-6-[(9aS)-hexahydropyrazino[2,1-c][1,4]oxazin-8(1H)-yl]-2-methyl-4-pyrimidinyl}hydrazino)-3-oxopropyl]hydroxyl formamide methanesulfonate polymorphic Form 2]: in data set [4] (up to 95% relative humidity), the “labile water adsorbed reversibly” value is “up to 2 % (wt/wt)”.
As to `Cc1nc(NNC(=O)[C@H](CC2CCCC2)CN(O)C=O)c(F)c(N2CCN3CCOC[C@@H]3C2)n1` [Example 24, [(2R)-2-(Cyclopentylmethyl)-3-(2-{5-fluoro-6-[(9aS)-hexahydropyrazino[2,1-c][1,4]oxazin-8(1H)-yl]-2-methyl-4-pyrimidinyl}hydrazino)-3-oxopropyl]hydroxyformamide], the MIC in the data set with Enterococcus faecalis 7 amounted to 32 µg/mL (≈ 66.7 µM); in the data set on Enterococcus faecalis I, 48 µg/mL (≈ 100 µM); in [5], 0.188 µg/mL (≈ 0.391 µM); in data set [6] it was 16 µg/mL (≈ 33.4 µM); in [7], 1 µg/mL (≈ 2.09 µM); in data set [8] it was 0.5 µg/mL (≈ 1.04 µM). Moreover, the MIC in data set [9] was 0.375 µg/mL (≈ 0.782 µM); in data set [10] it was 2 µg/mL (≈ 4.17 µM); in [11] it was 0.375 µg/mL (≈ 0.782 µM); in data set [12], 0.75 µg/mL (≈ 1.56 µM); in data set [13] it was 0.375 µg/mL (≈ 0.782 µM); in data set [14], 0.5 µg/mL (≈ 1.04 µM).
Consider `Cc1nc(NNC(=O)[C@H](CC2CCCC2)CN(O)C=O)c(F)c(N2CCN3CCOC[C@@H]3C2)n1` [[(2R)-2-(Cyclopentylmethyl)-3-(2-{5-fluoro-6-[(9aS)-hexahydropyrazino[2,1-c][1,4]oxazin-8(1H)-yl]-2-methyl-4-pyrimidinyl}hydrazino)-3-oxopropyl]hydroxyformamide], for which, in the data set on panel of 12 strains, the “in vitro antibacterial activity (MIC and/or MIC90) and/or in vivo efficacy” value was “greater in vitro antibacterial activity (MIC and/or MIC90) and/or better in vivo efficacy”.
